What was measured:
[1] = system: full-length I-C6 receptor fused to translocation domain (rhodopsin tag); test: Ca2+ imaging, full-length I-C6 receptor with rhodopsin tag in HEK-293 cells; format: cell-based, mouse
Method: PCR products were digested with PstI and BspEI restriction enzymes before size fractionation, purification and ligation into the pCMV-Rho/M4NC vector (see FIG. 1A). The vector ligation products were transformed into E. coli and 480 clones were placed in 96-well plates. […] Pools of cells from a single column of the plates (8 wells) were grown in a 50 ml culture and plasmid DNA prepared. Insert-containing vectors containing: the 5′-untranslated region of the rhodopsin gene, which included its coding region for the initiation methionine and the next 19 residues; joined to a full-length cDNA for a mouse olfactory receptor (M4 or I-C6), under the control of the CMV promoter, were also prepared. The full-length coding region of olfactory receptors mI7 and I-C6 were obtained by screening a mouse (129 SV/J) genomic phage (λFIX-II) library (2×10^6 independent clones) using ^32P-labeled DNA fragments (of TMII through VII sequence) of the respective receptors under stringent conditions (hybridized at 0.2×SSC at 65° C.). DNA fragments encoding the full-length receptors were cloned into pBluescript (Stratagene) and sequenced.
(§1) These transfected cells were then tested for their ability to functionally respond to ligand-receptor binding. The ligand, the adrenergic agonist isoproterenol, was “bath” applied to the transfected cells and single cell Ca^2+-imaging was performed. Cells were pre-loaded with the Ca^2+-sensitive fluorescent dye FURA-2 AM (Molecular Probes) by bathing in serum-free DMEM containing 4 μM of the membrane permeant chemical for 1 hr at 37° C., then washed with a standard bath solution (130 mM NaCl, 2 mM CaCl2, 5 mM KCl, 10 mM glucose, 10 mM Na.HEPES/pH 7.4 at room temperature). For each experiment, a glass coverslip with FURA-2 loaded HEK 293 cells was introduced into an open-topped, longitudinal microperfusion chamber (300 μl bath volume mounted on a Zeiss Axiovert 135 microscope equipped with an F Fluar 40×/1.30 oil-immersion lens. The cells were superfused with test solutions typically for 30 to 40 seconds (5 ml/application) and washed out with 5 ml of bath solution at the end of each application. Each test solution was freshly diluted and manually applied with a micropipette into the chamber. Because of this manual procedure, there could be several seconds of delay in actual application from electronic tick marks used to define the beginning of application in each graph. At the same time, the solution flow might not be completely laminar. In most cases, the onset of Ca2+ rise in response to a specific solution occurred within 15 seconds of the beginning of solution application, though longer delays were sometimes observed. Acetylcholine was applied at the end of each experiment at 10 μM for 15–20 seconds. Ratiometric Ca^2+ measurements were performed as described by Grynkiewicz (1985) 260:3440–3450, with modifications using the Zeiss/Attofluor-Ratiovision imaging system. At 5-second intervals, the cells were sequentially illuminated for less than 100 ms, first at 340 nm and then at 380 nm. Fluorescence emission at 510 nm was monitored for each excitation wavelength via an intensified CCD camera. Averaged pixel intensities within 40 to 100 regions of interest, corresponding to 40 to 100 individual cells, were digitized and stored on a computer. Attofluor-Ratiovision software (Atto Instruments) was used to determine the Ca^2+-dependent fluorescence signal expressed as the F340/F380 ratio.
To determine if these physiologic responses were caused by ligand interaction with a full-length 7-membrane receptor, a genomic clone of the entire I-C6 receptor coding sequence was isolated and used to make a chimeric molecule incorporating the tranlocation domain of the invention (the “rhodopsin tag” sequence). The full-length I-C6 receptor retained the same stereo-selectivity as a chimeric receptor construct whose only I-C6 sequence was the transmembrane domains II through VII (i.e., the odorant/ligand binding domain). […]

[2] = system: mouse olfactory receptor TM II–VII chimeric receptor library (pools of clones); test: Ca2+ imaging screen of 80 library chimeric receptors (10 pools of eight constructs) against 26 odorants in HEK-293 cells with Gα15,16; format: cell-based; settings: for intracellular Ca2+ response of a clone pool: odorants applied sequentially
Method: HEK-293 cells (obtained from the ATCC) were grown in DMEM supplemented with 10% fetal bovine serum, penicillin (100 U/ml), streptomycin (100 μg/ml) and L-glutamine (2 mM) in 5% CO2. Before transfection, the cells were seeded onto poly-L-lysine-coated 10.5×35×0.17 mm glass coverslips (Bellco) placed in the 60 mm culture dishes. Calcium phosphate-mediated transfections were performed in a 60 mm dish with 3 to 4 μg of receptor construct DNA, 1 μg of pCIS Gα 15 and Gα16 expression vector (Offermanns (1995) supra). 2 μg of pBluescript carrier DNA, and 0.3 μg of pRSV-T antigen expression vector (Gorman (1990) DNA and Protein Eng. Tech. 2:3–9). After 5 to 7 hr incubation, the cells were washed once with PBS containing 0.5 mM EDTA and 10% DMSO, then with PBS before continuing growth in regular media for 40–50 hr.
as §1
The 7-transmembrane domain region TM II–VII expressing vector libraries of the invention were expressed in this cell expression system. Various odorant were screened for their ability to generate a physiologic response in the form of a calcium transient, as above. Eighty plasmid clones arrayed in microtiter plates were pooled into 10 groups of eight constructs each, and co-transfected with Gα15,16 into HEK-293 cells. […]

[3] = system: I-D3 chimeric olfactory receptor; test: Ca2+ imaging, individual clone I-D3 in HEK-293 cells with Gα15,16; format: cell-based, mouse
Method: These transfected cells were then tested for their ability to functionally respond to ligand-receptor binding. The ligand, the adrenergic agonist isoproterenol, was “bath” applied to the transfected cells and single cell Ca^2+-imaging was performed. Cells were pre-loaded with the Ca^2+-sensitive fluorescent dye FURA-2 AM (Molecular Probes) by bathing in serum-free DMEM containing 4 μM of the membrane permeant chemical for 1 hr at 37° C., then washed with a standard bath solution (130 mM NaCl, 2 mM CaCl2, 5 mM KCl, 10 mM glucose, 10 mM Na.HEPES/pH 7.4 at room temperature). […] Fluorescence emission at 510 nm was monitored for each excitation wavelength via an intensified CCD camera. […] Attofluor-Ratiovision software (Atto Instruments) was used to determine the Ca^2+-dependent fluorescence signal expressed as the F340/F380 ratio. […]

[4] = system: I-G7 chimeric olfactory receptor; test: Ca2+ imaging, individual clone I-G7 in HEK-293 cells with Gα15,16; format: cell-based, mouse; settings: 10 μM
Method: These transfected cells were then tested for their ability to functionally respond to ligand-receptor binding. The ligand, the adrenergic agonist isoproterenol, was “bath” applied to the transfected cells and single cell Ca^2+-imaging was performed. Cells were pre-loaded with the Ca^2+-sensitive fluorescent dye FURA-2 AM (Molecular Probes) by bathing in serum-free DMEM containing 4 μM of the membrane permeant chemical for 1 hr at 37° C., then washed with a standard bath solution (130 mM NaCl, 2 mM CaCl2, 5 mM KCl, 10 mM glucose, 10 mM Na.HEPES/pH 7.4 at room temperature). For each experiment, a glass coverslip with FURA-2 loaded HEK 293 cells was introduced into an open-topped, longitudinal microperfusion chamber (300 μl bath volume mounted on a Zeiss Axiovert 135 microscope equipped with an F Fluar 40×/1.30 oil-immersion lens. The cells were superfused with test solutions typically for 30 to 40 seconds (5 ml/application) and washed out with 5 ml of bath solution at the end of each application. Each test solution was freshly diluted and manually applied with a micropipette into the chamber. Because of this manual procedure, there could be several seconds of delay in actual application from electronic tick marks used to define the beginning of application in each graph. At the same time, the solution flow might not be completely laminar. In most cases, the onset of Ca2+ rise in response to a specific solution occurred within 15 seconds of the beginning of solution application, though longer delays were sometimes observed. Acetylcholine was applied at the end of each experiment at 10 μM for 15–20 seconds. Ratiometric Ca^2+ measurements were performed as described by Grynkiewicz (1985) 260:3440–3450, with modifications using the Zeiss/Attofluor-Ratiovision imaging system. […] Fluorescence emission at 510 nm was monitored for each excitation wavelength via an intensified CCD camera. […] Attofluor-Ratiovision software (Atto Instruments) was used to determine the Ca^2+-dependent fluorescence signal expressed as the F340/F380 ratio. […]

## CC(C)=CCCC(C)CCO (single isomer, unassigned; (-)) [(−) citronellol]
[1]; 30 μM
  intracellular Ca2+ response: only 30 μM (−) citronellyl bromide elicited a small response

## CC(C)=CCC/C(C)=C/C=O [+/− citral]
[1]; 30 μM
  intracellular Ca2+ response: only 30 μM (−) citronellyl bromide elicited a small response

## (−) citral demethyl acetal
[1]; 30 μM
  intracellular Ca2+ response: only 30 μM (−) citronellyl bromide elicited a small response

## C=C(C)C1CC=C(C)C(=O)C1 (single isomer, unassigned; (-)) [(−) carvone]
[2]; 10 μM
  intracellular Ca2+ response of a clone pool: transient increases in Ca^2+
[2]; 10 μM, second application
  Ca2+ response of a clone pool to a second application: second response to (−) carvone could still be elicited
[3]
  intracellular Ca2+ response: responsive

## C=C(C)C1CC=C(C)CC1 (single isomer, unassigned; (+)) [(+) limonene]
[4]
  intracellular Ca2+ response: responded
[2]; 10 μM
  intracellular Ca2+ response of a clone pool: transient increases in Ca^2+

## CC(C)=CCCC(C)CC(=O)O (single isomer, unassigned; (-)) [(−) citronellic acid]
[1]; 30 μM
  intracellular Ca2+ response: only 30 μM (−) citronellyl bromide elicited a small response

## C=C(C)[C@H]1CC=C(C)CC1 [limonene]
[2]; micromolar concentrations, three receptors, respectively
  response of a library receptor: responded
[1]; 100 μM
  intracellular Ca2+ response: no responses

Source: patent US7138242B2, “Olfactory receptor expression libraries and methods of making and using them” (Johns Hopkins University, priority 1998, dated 2006)
